{
  "source": "patent US11357748B2",
  "about": "“Methods for treating mendelian disorders of the epigenetic machinery” (THE JOHNS HOPKINS UNIVERSITY, priority 2014, dated 2022)",
  "key": {"[1]": {"test_system": "mouse models of Rubinstein-Taybi syndrome", "conditions": "cited from earlier work"}, "[2]": {"test_system": "H3K4 trimethylation activity in Kmt2d+/βGeo MEFs", "assay": "H3K4me3 indicator in murine embryonic fibroblasts (MEFs) from Kmt2d+/βGeo and Kmt2d+/+ mice", "format": "cell-based, mouse", "conditions": "Kmt2d+/βGeo MEFs; FIG. 18H, 22A, 23", "text": "An H3K4 trimethylation reporter was also created (FIG. 5B). This reporter is based on the H3 tail on one end and the TBP associated factor III (TAFIII) […] on the other end; the TAFIII […] only identifies and binds to trimethylated K4 on H3. When the H3K4 site gets trimethylated, the TAFIII […] can bind to the modified H3 tail and bring the two parts of the separated GFP in close proximity. The activity of the epigenetic modification system can be quantified through fluorescence.\nEpigenetic reporter alleles were synthesized (OriGene, Rockville, Md.) using published sequences for component elements (Baird et al. (1999) Proc. Natl. Acad. Sci. 96:11241-6; Souslova et al. (2007) BMC Biotechnol. 7:37). Single nucleotide mutations were created using the QuickChange Lightening kit (Agilent Technologies Inc, Santa Clara, Calif.). For H4ac indicator, K5R, K8R, K12R, K16R and K20R (MUT indicator) were introduced. For H3K4me3 indicator, K4Q and D890A/W891A and M882A (three separate constructs) were introduced. […] FACS data were analyzed using FlowJo (Tree Star Inc, Ashland, Oreg.). […]\nEpigenetic reporter systems were created that monitor either H4 acetylation or H3K4 trimethylation machinery activity in an effort to determine whether there is an ongoing activity deficiency in cells from Kmt2d^+/βGeo mice (FIG. 18A). Both reporter alleles encode halves of green fluorescent protein separated by a flexible linker region (Baird et al. (1999) Proc. Natl. Acad. Sci. 96: 11241-6) with a histone tail and a histone reader at the N- and C-termini, respectively. When the histone tail corresponding to either H4 or H3 is modified by acetylation or methylation, respectively, GFP structure and function are reconstituted, as detected by a fluorescent readout (FIG. 18B). The acetyl reporter protein quantifies the activity of the acetylation machinery (acetylation of H4 specifically at sites K5, K8, K12, and K16) and comprises an H4 tail (residues 1-30) on one end and a TATA binding protein (TBP)-associated factor II (TAFII) bromodomain on the other end (FIG. 18A). […]"}, "[3]": {"test_system": "H4 acetylation machinery (H4ac indicator)", "assay": "H4 acetylation (H4ac) indicator reporter allele, GFP fluorescence by FACS in stably transfected T293/HEK293 cells", "format": "cell-based", "conditions": "FIG. 18C, 18D, 19A, 19B, 20", "text": "The acetyl reporter protein quantifies the activity of the acetylation machinery (acetylation of H4 specifically at the 5th, 8th, 12th and 16th Lysine's) and comprises an H4 tail on one end (the target for acetylation) and a TBP associated factor II (TAFII) bromodomain on the other end of the reporter protein (FIG. 5A). The TAFII bromodomain only recognizes and binds to the acetylated H4 tail, resulting in reconstitution of GFP structure and function (i.e. fluorescence). Therefore, the reporter protein has no fluorescence unless it is acetylated by the acetylation system of the nucleus of the cell.\nEpigenetic reporter alleles were synthesized (OriGene, Rockville, Md.) using published sequences for component elements (Baird et al. (1999) Proc. Natl. Acad. Sci. 96:11241-6; Souslova et al. (2007) BMC Biotechnol. 7:37). […] FACS data were analyzed using FlowJo (Tree Star Inc, Ashland, Oreg.). […]\nEpigenetic reporter systems were created that monitor either H4 acetylation or H3K4 trimethylation machinery activity in an effort to determine whether there is an ongoing activity deficiency in cells from Kmt2d^+/βGeo mice (FIG. 18A). Both reporter alleles encode halves of green fluorescent protein separated by a flexible linker region (Baird et al. (1999) Proc. Natl. Acad. Sci. 96: 11241-6) with a histone tail and a histone reader at the N- and C-termini, respectively. […]"}, "[4]": {"test_system": "HDAC", "conditions": "Phiel et al. (2001); cited from earlier work"}},
  "note": "“Also recorded” adds a separate entry of the source. Where two headings read alike, the source gives them in different places.",
  "data": [
    {"smiles": "CC(C=CC(=O)NO)=CC(C)C(=O)c1ccc(N(C)C)cc1", "note": "(centres unmarked) [trichostatin A, 7-[4-(dimethylamino)phenyl]-N-hydroxy-4,6-dimethyl-7-oxohepta-2,4-dienamide]", "values": [
      {"measurement": "neurological phenotypes in Rubinstein-Taybi mouse models", "setting": "[1]; intraperitoneal administration", "result": "respond"}
    ]},
    {"smiles": "Nc1ccccc1NC(=O)c1ccc(CNC(=O)OCc2cccnc2)cc1", "note": "[MS275, Pyridin-3-ylmethyl N-[[4-[(2-aminophenyl)carbamoyl]phenyl]methyl]carbamate]", "values": [
      {"measurement": "H3K4 trimethylation activity in Kmt2d+/βGeo cells upon treatment", "setting": "[2]", "result": "enhanced; also recorded: improved"}
    ]},
    {"smiles": "O=C(CCCCCCC(=O)Nc1ccccc1)NO", "note": "[SAHA, N′-hydroxy-N-phenyl-octanediamide]", "values": [
      {"measurement": "neurological phenotypes in Rubinstein-Taybi mouse models", "setting": "[1]; intracerebroventricular administration", "result": "respond"},
      {"measurement": "H4ac indicator fluorescence response to increasing amounts of drug", "setting": "[3]", "result": "linear fluorescence response; also recorded: increasing fluorescence; also recorded: increases acetylation of the indicator; also recorded: increased signal"}
    ]},
    {"smiles": "CCCC(CCC)C(=O)O", "note": "[valproic acid, 2-Propylpentanoic acid]", "values": [
      {"measurement": "HDAC inhibitor activity", "setting": "[4]", "result": "potent HDACi"}
    ]}
  ]
}
